Literature values in paper PMC7510478, “The effect of size, charge, and peptide ligand length on kidney targeting by small, organic nanoparticles” (Bioengineering & Translational Medicine, 2020).

What was measured:
[1] = test system: ADPKD patients
Source text: Chronic kidney disease (CKD) affects 600 million people globally and is characterized by gradual kidney function decline. ^1 A common form of CKD is autosomal dominant polycystic kidney disease (ADPKD), which affects over 12 million people worldwide and is characterized by renal cyst formation that can result in the need for dialysis or kidney transplant. ^2 , ^3 , ^4 , ^5 Currently, there is no cure for ADPKD and tolvaptan is the only FDA approved treatment for ADPKD. ^6 Despite enthusiasm, tolvaptan has been reported to cause several side effects including polyuria, thirst, nocturia, and dru ...

[2] = test system: megalin; design: method as in PMID 27617593, PMID 19202329, PMID 11994745, PMID 9574443
[3] = study of 961 ADPKD patients undergoing tolvaptan treatment

| Compound | Patients affected by polyuria ([1]; ADPKD patients on tolvaptan) [%] | Adverse event rate, nocturia [1, 3] [%] | Adverse event rate, thirst [1, 3] | Uptake in megalin‐deficient mice [2] |
| --- | --- | --- | --- | --- |
| Cc1ccccc1C(=O)Nc1ccc(C(=O)N2CCCC(O)c3cc(Cl)ccc32)c(C)c1 (stereo not shown) [tolvaptan] | 38 | ~29 | approximately 55% |  |
| [Lys–Lys–Glu–Glu–Glu]3–Lys [(KKEEE)3K] |  |  |  | significantly reduced uptake |
